For 3 compounds, remaining activity results are on record in patent US20240246942A1, “KINASE INHIBITORS FOR THE TREATMENT OF NEURODEGENERATIVE DISEASES” (priority 2020, published 2024).

Holding throughout (experiment): biochemical
The target in test [1] is T1, panel of 374 wild-type kinases (Homo sapiens, UniProt Q13554).
T1 construct: purchased Reaction Biology Corporation
The conditions noted are these: read-out: % Enzyme Activity (relative to DMSO controls), CAMK2b.

The target of test [2] is T2, panel of 374 wild-type kinases (Homo sapiens, UniProt O96017).
T2 construct: purchased Reaction Biology Corporation
T2 sequence (O96017 whole entry): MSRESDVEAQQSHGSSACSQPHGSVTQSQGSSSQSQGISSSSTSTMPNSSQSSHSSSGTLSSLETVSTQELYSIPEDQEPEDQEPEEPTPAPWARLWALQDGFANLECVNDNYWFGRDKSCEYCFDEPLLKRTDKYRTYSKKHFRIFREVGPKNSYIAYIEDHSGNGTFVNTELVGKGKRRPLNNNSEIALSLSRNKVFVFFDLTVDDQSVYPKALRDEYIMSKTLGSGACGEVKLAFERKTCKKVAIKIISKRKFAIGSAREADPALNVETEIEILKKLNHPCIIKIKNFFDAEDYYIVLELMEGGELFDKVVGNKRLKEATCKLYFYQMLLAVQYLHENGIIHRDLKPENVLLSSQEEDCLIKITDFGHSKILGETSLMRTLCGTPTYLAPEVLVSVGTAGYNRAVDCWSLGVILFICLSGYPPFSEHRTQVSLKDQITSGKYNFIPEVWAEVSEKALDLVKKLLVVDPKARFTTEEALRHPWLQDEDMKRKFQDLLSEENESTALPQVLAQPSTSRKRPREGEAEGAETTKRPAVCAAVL
As to conditions: read-out: % Enzyme Activity (relative to DMSO controls), CHK2.

Test [3] concerns the target T3, panel of 374 wild-type kinases (Homo sapiens, UniProt P51812).
T3 construct: purchased Reaction Biology Corporation
As to conditions: read-out: % Enzyme Activity (relative to DMSO controls), kinase RSK2.

Test [4] has as its target T4, panel of 374 wild-type kinases (Homo sapiens, UniProt P49840).
T4 construct: purchased Reaction Biology Corporation
The conditions noted are these: read-out: % Enzyme Activity (relative to DMSO controls), GSK3a.

The target in test [5] is T5, panel of 374 wild-type kinases (Homo sapiens, UniProt P15735).
T5 construct: purchased Reaction Biology Corporation
T5 sequence (P15735 1-406): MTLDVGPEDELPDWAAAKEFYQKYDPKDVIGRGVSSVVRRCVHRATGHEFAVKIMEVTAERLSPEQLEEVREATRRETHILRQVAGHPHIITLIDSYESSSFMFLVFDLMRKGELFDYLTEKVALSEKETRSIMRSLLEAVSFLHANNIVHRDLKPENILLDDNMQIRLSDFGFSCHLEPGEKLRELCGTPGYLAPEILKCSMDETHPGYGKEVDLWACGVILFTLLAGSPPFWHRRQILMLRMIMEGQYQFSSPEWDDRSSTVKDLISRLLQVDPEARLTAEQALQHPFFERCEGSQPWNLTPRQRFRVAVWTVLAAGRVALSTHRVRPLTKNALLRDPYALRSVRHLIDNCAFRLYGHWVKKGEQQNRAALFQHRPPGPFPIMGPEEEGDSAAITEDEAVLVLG
The conditions noted are these: read-out: % Enzyme Activity (relative to DMSO controls), kinase PHKg2.

For test [6], the target named is T6, panel of 374 wild-type kinases (Homo sapiens, UniProt O75716).
T6 construct: purchased Reaction Biology Corporation
T6 sequence (O75716 whole entry): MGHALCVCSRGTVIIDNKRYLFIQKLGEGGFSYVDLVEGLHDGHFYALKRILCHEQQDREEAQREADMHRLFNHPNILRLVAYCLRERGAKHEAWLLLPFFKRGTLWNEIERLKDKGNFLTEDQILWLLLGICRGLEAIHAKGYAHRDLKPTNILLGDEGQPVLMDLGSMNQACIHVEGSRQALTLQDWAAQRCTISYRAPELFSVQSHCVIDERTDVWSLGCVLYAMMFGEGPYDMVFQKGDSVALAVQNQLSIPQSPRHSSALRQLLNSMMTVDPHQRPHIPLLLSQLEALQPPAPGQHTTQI
The conditions noted are these: read-out: % Enzyme Activity (relative to DMSO controls), kinase STK16.

In test [7] the target is T7, panel of 374 wild-type kinases (Homo sapiens, UniProt P11309).
T7 construct: purchased Reaction Biology Corporation
T7 sequence (P11309 whole entry): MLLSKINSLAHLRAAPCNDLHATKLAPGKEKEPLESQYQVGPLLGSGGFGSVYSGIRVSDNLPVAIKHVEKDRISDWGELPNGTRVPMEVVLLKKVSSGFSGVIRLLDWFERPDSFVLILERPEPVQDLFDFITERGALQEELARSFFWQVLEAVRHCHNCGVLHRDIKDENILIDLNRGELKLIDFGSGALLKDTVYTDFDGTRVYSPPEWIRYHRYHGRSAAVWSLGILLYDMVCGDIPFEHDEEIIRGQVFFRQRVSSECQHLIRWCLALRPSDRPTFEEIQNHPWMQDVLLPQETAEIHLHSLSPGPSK
The conditions noted are these: read-out: % Enzyme Activity (relative to DMSO controls), kinase PIM1.

Test [8] has as its target T8, panel of 374 wild-type kinases (Homo sapiens, UniProt P00533).
T8 construct: purchased Reaction Biology Corporation
As to conditions: read-out: % Enzyme Activity (relative to DMSO controls), EGFR.

Test [9] addresses T9, panel of 374 wild-type kinases (Homo sapiens, UniProt Q9HAZ1).
T9 construct: purchased Reaction Biology Corporation
The conditions noted are these: read-out: % Enzyme Activity (relative to DMSO controls), CLK4.

For test [10], the target named is T10, panel of 374 wild-type kinases (Homo sapiens, UniProt Q9BZL6).
T10 construct: purchased Reaction Biology Corporation
T10 sequence (Q9BZL6 1-878): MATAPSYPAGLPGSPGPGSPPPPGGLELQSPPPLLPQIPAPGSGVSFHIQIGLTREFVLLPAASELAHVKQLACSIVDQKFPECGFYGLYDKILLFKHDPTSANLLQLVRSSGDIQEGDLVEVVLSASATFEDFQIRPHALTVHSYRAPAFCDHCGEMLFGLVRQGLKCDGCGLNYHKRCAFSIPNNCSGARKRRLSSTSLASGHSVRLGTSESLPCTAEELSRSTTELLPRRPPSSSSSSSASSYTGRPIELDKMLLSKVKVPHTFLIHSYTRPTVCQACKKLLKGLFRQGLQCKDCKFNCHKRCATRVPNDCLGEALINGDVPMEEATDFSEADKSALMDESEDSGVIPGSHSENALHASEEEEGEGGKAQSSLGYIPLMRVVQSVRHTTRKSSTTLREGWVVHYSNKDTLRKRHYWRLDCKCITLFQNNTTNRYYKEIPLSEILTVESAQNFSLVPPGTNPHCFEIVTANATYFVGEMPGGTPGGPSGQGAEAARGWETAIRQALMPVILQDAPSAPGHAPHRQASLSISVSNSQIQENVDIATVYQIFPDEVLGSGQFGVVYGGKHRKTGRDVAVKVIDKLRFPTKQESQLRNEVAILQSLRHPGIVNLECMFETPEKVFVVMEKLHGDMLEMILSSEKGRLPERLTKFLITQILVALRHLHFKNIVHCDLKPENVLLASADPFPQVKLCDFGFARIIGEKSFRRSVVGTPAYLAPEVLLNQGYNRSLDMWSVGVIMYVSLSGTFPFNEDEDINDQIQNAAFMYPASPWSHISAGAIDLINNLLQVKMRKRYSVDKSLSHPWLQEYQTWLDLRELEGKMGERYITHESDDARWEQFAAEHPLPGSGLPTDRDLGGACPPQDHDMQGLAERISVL
The conditions noted are these: read-out: % Enzyme Activity (relative to DMSO controls), kinase PKD2/PRKD2.

Test [11] has as its target T11, panel of 374 wild-type kinases (Homo sapiens, UniProt O43318).
T11 construct: purchased Reaction Biology Corporation
T11 sequence (O43318 1-606): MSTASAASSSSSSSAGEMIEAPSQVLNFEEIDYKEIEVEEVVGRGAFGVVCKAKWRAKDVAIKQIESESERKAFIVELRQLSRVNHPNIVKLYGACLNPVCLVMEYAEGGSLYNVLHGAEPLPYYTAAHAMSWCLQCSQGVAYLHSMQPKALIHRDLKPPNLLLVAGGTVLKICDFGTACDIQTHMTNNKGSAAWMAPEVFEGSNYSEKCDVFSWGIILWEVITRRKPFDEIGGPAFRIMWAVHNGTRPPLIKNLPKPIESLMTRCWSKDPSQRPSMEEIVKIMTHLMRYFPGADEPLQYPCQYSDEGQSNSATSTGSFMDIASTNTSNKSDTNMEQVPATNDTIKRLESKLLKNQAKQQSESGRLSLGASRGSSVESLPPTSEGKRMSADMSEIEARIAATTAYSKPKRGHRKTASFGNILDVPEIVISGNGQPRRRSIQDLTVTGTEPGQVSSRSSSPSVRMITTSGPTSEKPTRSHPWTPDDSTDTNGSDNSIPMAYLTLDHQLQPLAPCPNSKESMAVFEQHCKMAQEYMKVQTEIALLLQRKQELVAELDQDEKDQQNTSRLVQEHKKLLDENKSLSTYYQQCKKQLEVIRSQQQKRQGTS
As to conditions: read-out: % Enzyme Activity (relative to DMSO controls), kinase TAK1.

T4 sequence (P49840 whole entry): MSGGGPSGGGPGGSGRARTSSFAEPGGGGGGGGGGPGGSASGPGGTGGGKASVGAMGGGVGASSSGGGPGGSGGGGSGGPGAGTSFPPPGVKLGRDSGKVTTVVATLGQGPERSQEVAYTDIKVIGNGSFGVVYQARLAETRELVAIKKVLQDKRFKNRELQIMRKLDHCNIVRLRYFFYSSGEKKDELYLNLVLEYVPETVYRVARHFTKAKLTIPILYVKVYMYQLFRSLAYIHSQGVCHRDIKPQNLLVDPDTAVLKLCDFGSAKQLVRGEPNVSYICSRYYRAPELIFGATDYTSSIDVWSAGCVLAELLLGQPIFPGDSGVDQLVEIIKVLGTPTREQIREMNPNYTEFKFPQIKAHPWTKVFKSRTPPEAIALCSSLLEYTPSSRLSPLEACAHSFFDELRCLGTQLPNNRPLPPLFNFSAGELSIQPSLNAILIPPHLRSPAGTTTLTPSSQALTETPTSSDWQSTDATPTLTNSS
T8 sequence (P00533 25-1210): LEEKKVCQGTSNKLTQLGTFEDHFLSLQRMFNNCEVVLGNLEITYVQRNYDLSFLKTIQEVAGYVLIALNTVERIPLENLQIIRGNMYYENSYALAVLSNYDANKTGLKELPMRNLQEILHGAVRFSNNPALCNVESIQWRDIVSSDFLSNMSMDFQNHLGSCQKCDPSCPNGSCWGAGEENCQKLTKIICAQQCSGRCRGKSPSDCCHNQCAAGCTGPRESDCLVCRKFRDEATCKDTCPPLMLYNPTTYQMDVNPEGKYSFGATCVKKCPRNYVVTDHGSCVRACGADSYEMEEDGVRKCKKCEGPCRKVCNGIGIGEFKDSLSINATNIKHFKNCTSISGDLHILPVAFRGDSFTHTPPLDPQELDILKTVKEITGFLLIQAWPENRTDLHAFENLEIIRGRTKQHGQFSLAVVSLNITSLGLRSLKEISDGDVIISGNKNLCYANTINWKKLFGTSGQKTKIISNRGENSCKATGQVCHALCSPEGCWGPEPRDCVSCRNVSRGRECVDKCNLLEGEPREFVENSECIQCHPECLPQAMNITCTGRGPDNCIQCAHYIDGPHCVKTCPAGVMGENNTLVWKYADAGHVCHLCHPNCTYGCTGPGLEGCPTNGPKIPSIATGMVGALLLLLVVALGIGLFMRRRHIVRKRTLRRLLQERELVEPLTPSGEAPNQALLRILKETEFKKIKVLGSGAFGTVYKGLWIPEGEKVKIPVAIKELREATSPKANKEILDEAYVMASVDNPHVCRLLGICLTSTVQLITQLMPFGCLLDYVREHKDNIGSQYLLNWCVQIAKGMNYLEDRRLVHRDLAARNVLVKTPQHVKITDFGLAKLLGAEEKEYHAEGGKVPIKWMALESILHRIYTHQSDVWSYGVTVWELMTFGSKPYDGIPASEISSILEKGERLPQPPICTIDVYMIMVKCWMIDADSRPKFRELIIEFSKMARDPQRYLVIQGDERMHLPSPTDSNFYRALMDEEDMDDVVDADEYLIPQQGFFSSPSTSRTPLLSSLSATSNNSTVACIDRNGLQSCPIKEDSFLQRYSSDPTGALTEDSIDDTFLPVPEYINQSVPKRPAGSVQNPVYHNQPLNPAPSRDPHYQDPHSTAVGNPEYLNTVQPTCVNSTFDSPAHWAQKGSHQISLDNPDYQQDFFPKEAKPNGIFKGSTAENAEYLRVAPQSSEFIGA
T1 sequence (Q13554 whole entry): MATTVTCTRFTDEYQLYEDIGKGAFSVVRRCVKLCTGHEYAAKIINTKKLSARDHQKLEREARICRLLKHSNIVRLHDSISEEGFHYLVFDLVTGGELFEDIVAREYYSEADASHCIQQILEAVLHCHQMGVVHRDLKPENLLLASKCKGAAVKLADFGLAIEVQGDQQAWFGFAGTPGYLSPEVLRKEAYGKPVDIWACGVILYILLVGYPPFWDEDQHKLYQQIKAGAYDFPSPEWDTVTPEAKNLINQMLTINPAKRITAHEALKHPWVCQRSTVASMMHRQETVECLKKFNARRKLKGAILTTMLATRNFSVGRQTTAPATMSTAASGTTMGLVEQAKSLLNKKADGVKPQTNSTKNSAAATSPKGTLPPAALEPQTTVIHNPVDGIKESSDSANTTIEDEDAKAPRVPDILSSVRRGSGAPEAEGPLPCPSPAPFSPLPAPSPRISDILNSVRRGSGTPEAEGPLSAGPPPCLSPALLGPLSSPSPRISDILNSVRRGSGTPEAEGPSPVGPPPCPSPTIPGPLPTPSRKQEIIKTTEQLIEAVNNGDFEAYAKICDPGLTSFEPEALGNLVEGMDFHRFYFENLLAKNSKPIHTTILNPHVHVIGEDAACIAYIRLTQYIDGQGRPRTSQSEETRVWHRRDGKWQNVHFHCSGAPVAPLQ
T3 sequence (P51812 whole entry): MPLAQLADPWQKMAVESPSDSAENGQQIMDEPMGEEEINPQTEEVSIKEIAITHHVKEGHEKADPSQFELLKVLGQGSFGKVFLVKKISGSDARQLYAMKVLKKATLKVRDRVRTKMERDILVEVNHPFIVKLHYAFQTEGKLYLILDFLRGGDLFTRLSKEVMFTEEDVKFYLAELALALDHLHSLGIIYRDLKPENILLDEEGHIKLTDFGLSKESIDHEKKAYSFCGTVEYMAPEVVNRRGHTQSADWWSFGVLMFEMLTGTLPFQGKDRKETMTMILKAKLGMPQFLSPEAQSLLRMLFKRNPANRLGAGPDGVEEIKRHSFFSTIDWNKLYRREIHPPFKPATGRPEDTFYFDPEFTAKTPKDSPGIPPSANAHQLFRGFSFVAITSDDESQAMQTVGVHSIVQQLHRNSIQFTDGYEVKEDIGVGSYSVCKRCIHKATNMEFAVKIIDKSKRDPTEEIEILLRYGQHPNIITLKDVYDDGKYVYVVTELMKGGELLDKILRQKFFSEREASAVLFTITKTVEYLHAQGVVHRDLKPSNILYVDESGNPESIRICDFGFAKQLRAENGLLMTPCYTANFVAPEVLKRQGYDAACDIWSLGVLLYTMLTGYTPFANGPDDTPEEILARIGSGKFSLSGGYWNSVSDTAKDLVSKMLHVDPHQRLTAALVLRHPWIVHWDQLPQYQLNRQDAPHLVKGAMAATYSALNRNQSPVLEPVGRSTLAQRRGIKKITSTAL
T9 sequence (Q9HAZ1 whole entry): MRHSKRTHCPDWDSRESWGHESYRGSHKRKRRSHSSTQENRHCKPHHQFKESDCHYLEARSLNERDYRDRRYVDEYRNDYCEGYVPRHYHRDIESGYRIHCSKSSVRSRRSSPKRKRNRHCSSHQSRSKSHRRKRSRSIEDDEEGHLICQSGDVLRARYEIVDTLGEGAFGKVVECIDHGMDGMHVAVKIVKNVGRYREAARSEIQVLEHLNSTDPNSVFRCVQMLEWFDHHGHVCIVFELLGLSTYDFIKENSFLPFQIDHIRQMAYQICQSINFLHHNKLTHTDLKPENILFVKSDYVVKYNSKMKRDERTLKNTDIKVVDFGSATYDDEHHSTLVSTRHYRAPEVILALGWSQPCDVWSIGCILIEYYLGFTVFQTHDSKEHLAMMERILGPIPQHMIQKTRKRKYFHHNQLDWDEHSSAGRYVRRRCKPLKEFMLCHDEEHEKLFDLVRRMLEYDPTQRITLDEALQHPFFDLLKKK

As to `O=C(Nc1cnn(-c2csc(C(=O)NC3COC3)c2)c1)Nc1ccccc1Cl` [Compound 17, 4-(4-(3-(2-chlorophenyl)ureido)-1H-pyrazol-1-yl)-N-(oxetan-3-yl)thiophene-2-carboxamide], the remaining activity at 5 µM was determined as 105% in test [1]; 97.8% in [2]; 101% in test [3]; 97.4% in test [4]; 101% in test [5]; 98.6% in [6]. Besides, the remaining activity at 5 µM turned out to be 64.6% in test [7]; 99.7% in test [8]; 66% in test [9]; 94.9% in [10]; 98% in test [11].
As for `O=C(Nc1cnn(-c2csc(C(=O)NC3COC3)c2)c1)Nc1c(F)cccc1Cl` [Compound 25, 4-(4-(3-(2-chloro-6-fluorophenyl)ureido)-1H-pyrazol-1-yl)-N-(oxetan-3-yl)thiophene-2-carboxamide], the remaining activity at 5 µM amounted to 99.1% in [1]; 91.5% in [2]; 79.9% in test [3]; 93.5% in test [4]; 131% in test [5]; 107% in test [6]. For the same compound, the remaining activity at 5 µM in test [7] is 73.3%; in test [8], 89.4%; in [9], 93.2%; in [10], 102%; in [11] it was 109%.
In the case of `Cc1sc(C(=O)NC2COC2)cc1-n1cc(NC(=O)Nc2c(F)cccc2Cl)cn1` [Compound 27, 4-(4-(3-(2-chloro-6-fluorophenyl)ureido)-1H-pyrazol-1-yl)-5-methyl-N-(oxetan-3-yl)thiophene-2-carboxamide], the remaining activity at 10 µM in [1] (10 uM) turned out to be 100%; in test [2] (10 uM), 95.2%; in test [3] (10 uM), 73%; in test [4] (10 uM), 128%; in [5] (10 uM) it was 88.5%; in [6] (10 uM), 94.4%. The remaining activity at 10 µM in test [7] (10 uM) came to 95.1%; in test [8] (10 uM), 98.5%; in test [9] (10 uM), 102%; in test [10] (10 uM), 95.7%; in test [11] (10 uM), 98.4%.
